Laboratory results taken from US6720344B2, “Methods and compositions for stimulating osteoblast proliferation or treating malignant cell proliferation and methods for selecting osteoblast proliferation stimulants” (The Board of Regents of the University of Texas System, priority 1996, dated 2004).

Key:
BMP-2 promoter = BMP-2 promoter luciferase assay in 2T3 cells (Example 1); assay type: cell-based, murine
Source text: Such activity may be determined using any one of a number of methods known to the skilled artisan, such as by using the luciferase promoter assay described in Example 1. […] Since BMP-2 luciferase promoter constructs were transfected into immortalized murine osteoblasts (2T3 cells), the stimulation of luciferase activity is reasonably correlated to a osteoblast proliferation stimulation activity as recognized by those of ordinary skill in the art.
This technique has been described in the scientific literature [Ghosh-Choudhury, N.; Windle, J; J.; Koop, B. A.; Harris, M. A.; Guerrero, D. L.; Wozney, J. M.; Mundy, G. R.; Harris, S. E.; “Immortalized Murine Osteoblasts Derived from BMP 2-T-Antigen Expressing Transgenic Mice” Endocrinology (1996) 137, 331-339]. […]
Immortalized murine osteoblasts (2T3 cells) containing a bone morphogenetic protein 2 (BMP-2) promoter fragment are isolated from the calvaria of transgenic mice and cloned. […] Employing this BMP-2 promoter assay as an additional screening technique, the ED50 of compounds that stimulate luciferase activity, and, by inference, osteoblast proliferation, can be further assessed. […]
The transfection is carried out by the calcium phosphate precipitation technique. […] Luciferase enzyme activity can be measured in 15 different clonal cell lines. […] Luciferase activity is measured using a kit from Promega and a luminometer.

Row | EC50 (BMP-2 promoter; assay conditions of Example 1, stimulation of luciferase activity, read-out: ED50 in the promoter assay) | melting point | SMILES | production of luciferase action / BMP-2 promoter activity, in words (BMP-2 promoter; assay for BMP-2 promoter activity, compared to control)
1 | ~100 nM | – | COc1ccc(C(=O)Nc2nc3ccccc3s2)cc1 [2-(4-methoxybenzoyamino)-1,3-benzthiazole, reference compound] | –
2 | – | 123 to 124 °C | CC(C)Oc1ccc2c(c1)Cc1ccccc1C2=O [anthrone, 3-i-propoxyanthrone] | reduced pharmacological activity
